Source: publication PMC6967409 (Frontiers in Chemistry, 2020)
Several values for one entry are separate records, joined by “and”; a condition that tells them apart may be missing. Equal values may be shown once. Read-outs that look alike come from different tables or passages of the source.

Legend:
P. falciparum NF54 [1] = system: P. falciparum NF54; set-up: method as in Coertzen et al. (2018); details: SYBR Green I; ref Coertzen et al. (2018); read-out: Proliferative IC50 NF54; cited from earlier work
P. falciparum Dd2 [2] = system: P. falciparum Dd2; set-up: method as in Coertzen et al. (2018); details: pLDH, 48 h; ref Coertzen et al. (2018); read-out: Metabolic IC50 Dd2; cited from earlier work
[3] = system: P. falciparum NF54 early stage gametocytes (>90% stage I–III); set-up: method as in Coertzen et al. (2018); details: read-out: Early Stage (EG, Luc 48 h) IC50; >90% stage I–III gametocytes; ref Coertzen et al. (2018); cited from earlier work
P. falciparum W2 [4] = system: P. falciparum W2; set-up: method as in Coertzen et al. (2018); details: SYBR Green I; ref Coertzen et al. (2018); read-out: Proliferative IC50 W2; cited from earlier work
P. falciparum W2 [5] = assay: T0 [3H]-hypoxanthine drug susceptibility assay; format: cell-based; details: Plasmodium falciparum
[6] = system: P. falciparum NF54 late stage gametocytes (>90% stage IV and V); set-up: method as in Coertzen et al. (2018); details: read-out: Late Stage (LG, Luc 72 h) IC50; >90% stage IV and V gametocytes; ref Coertzen et al. (2018); cited from earlier work
[7] = system: Chinese hamster ovarian (CHO) cells; details: read-out: Cytotoxicity EC50 CHO; MTT assay; ref Coertzen et al. (2018); cited from earlier work
P. falciparum K1 [8] = system: P. falciparum K1; set-up: method as in Coertzen et al. (2018); details: SYBR Green I; ref Coertzen et al. (2018); read-out: Proliferative IC50 K1; cited from earlier work
P. falciparum NF54 [9] = system: P. falciparum NF54; set-up: method as in Coertzen et al. (2018); details: pLDH, 48 h; ref Coertzen et al. (2018); read-out: Metabolic IC50 NF54; cited from earlier work
[10] = Cytotoxicity, Cytoselect LDH cytotoxicity assay kit; format: cell-based; details: human, HepG2 cells
Method: (§1) Cytotoxicity (EC50) was determined against Chinese hamster ovarian (CHO) using a 3-(4,5-dimethylthiazol-2-yl)-2,5-diphenyltetrazolium bromide (MTT) assay and hepatocellular carcinoma cells (HepG2) using the Cytoselect LDH cytotoxicity assay kit (Cell Biolabs).

[11] = system: P. falciparum NF54 early stage gametocytes (>90% stage I–III); assay: Gametocytocidal luciferase reporter assay, early stage, 48 h; format: cell-based; details: Plasmodium falciparum, NF54, 48 h, read-out: Early Stage (EG, Luc 48 h) IC50
Method: (§2) P. falciparum parasites (NF54, K1, and W2) were cultured in vitro in human erythrocytes (A^+ or O^+) under 90% N2, 5% CO2, and 5% O2 atmospheric conditions with supplemented RPMI 1640 media (Sigma Aldrich) containing Albumax II, as previously described (Verlinden et al., [2011]). This study was carried out according the guidelines set out by the Faculty of Health Sciences Ethical Committee, Ethical Clearance no. EC-120821/077. The protocol was approved by the Faculty of Health sciences ethical committee at the University of Pretoria. All subjects gave written informed consent in accordance with the Declaration of Helsinki. Parasite proliferation was monitored microscopically using Giemsa stained smears. Synchronized ring stage parasites (>95%) were obtained using a 5% D-sorbitol (Sigma Aldrich) treatment. […] Gametocyte cultures were kept stationary under 90% N2, 5% CO2, and 5% O2 atmospheric conditions at 37°C and treated with 50 mM N-acetyl-glucosamine (NAG) to eliminate residual invasion of asexual parasites.
(§3) Gametocytocidal activity was determined using the luciferase reporter line (Reader et al., [2015]) to derive dose responses with two-fold serial drug dilutions for 48 h against early stage gametocytes (day 5 post-induction population, >90% stage I–III) and 10-fold serial drug dilutions for 72 h against late stage gametocytes (day 10 post-induction population, >90% late stage IV–V) (2% gametocytemia, 2% hematocrit), at 37°C under 90% N2, 5% CO2, and 5% O2 atmospheric conditions.

P. falciparum NF54 [12] = assay: Metabolic (parasite LDH) assay, asexual ring stage parasites, 48 h; format: cell-based; details: Plasmodium falciparum, pLDH, CQ-sensitive NF54
Method: as §2
(§4) Working solutions of the derivatives were prepared from a 10 mM stock solution in 100% DMSO in supplemented RPMI 1640 media containing Albumax II with a final DMSO concentration of <0.1%, previously determined as being non-toxic to intraerythrocytic asexual parasites and gametocytes. Dose responses were assayed using a two-fold serial drug dilution on in vitro >95% ring stage intraerythrocytic P. falciparum parasites at 37°C under 90% N2, 5% CO2, and 5% O2 atmospheric conditions, detecting both parasite lactate dehydrogenase (pLDH) activity as a metabolic marker following a 48 h drug exposure (1.5–2% parasitemia and 2% hematocrit; Makler et al., [1993]) and SYBR Green I fluorescence as proliferative marker following a 96 h drug exposure (1% parasitemia and 1% hematocrit). […] Data analysis was performed using GraphPad Prism 7.

P. falciparum Dd2 [13] = assay: as above; format: cell-based; details: Plasmodium falciparum, pLDH, Dd2 CQ, pyrimethamine resistant
Method: as §4

[14] = system: P. berghei ANKA GFP-Luc-SMcon sporozoites; assay: P. berghei-luciferase liver stage bioluminescence assay (causal prophylactic mode) in HepG2-CD81 cells; format: cell-based, Plasmodium berghei; details: for Emax: 48 h, read-out: P.berghei-Luciferase Liver Stage Bioluminescence Assay: Maximum measured (%); for inhibition at 10 µM: read-out: P. berghei sporozoites Maximum inhibition %
Method: (§5) Briefly, HepG2-CD81 cells were seeded into 1,536 well plates containing 50 nL of test and control compounds diluted into DMSO. […] Next, 2 μL of luciferin reagent (Promega BrightGlo) was added to each well and luciferase activity was detected using a Perkin Elmer Envision plate reader. […] In parallel, plates were processed without sporozoites for HepG2 toxicity measurements.
(§6) In continuation of the transmission blocking theme, it is important to establish activities against liver stage parasites. […] This assay uses ultra-high-throughput screening methods optimized for a 1536-well format and a HepG2 human hepatoma cell line. […] To establish selectivity of the compounds for the parasite in the liver stage of infection, cytotoxicity was determined by measuring bioluminescence from the reaction between free ATP of compound-treated, uninfected hepatocytes and a luciferase reporter system.

Cytotoxicity, MTT assay = format: cell-based; details: Chinese hamster, CHO cells
Method: as §1

[15] = system: asexual P. falciparum NF54, Dd2, K1, W2; assay: Asexual P. falciparum, metabolic (pLDH) and proliferative (SYBR Green I) platforms; format: cell-based; details: Plasmodium falciparum; read-out: IC50 for drug sensitive NF54 parasites across both assay platforms
Method: Data analysis was performed using GraphPad Prism 7.
The in vitro activities of the new derivatives were determined against drug sensitive NF54 and multi-drug resistant Dd2, K1, and W2 intraerythrocytic asexual P. falciparum malaria parasite strains using both a metabolic (parasite LDH) and a proliferative (SYBR Green I fluorescence) assay readout (Table 1).

[16] = system: P. falciparum NF54 late stage gametocytes (>90% stage IV and V); assay: Gametocytocidal luciferase reporter assay, late stage, 72 h; format: cell-based, Plasmodium falciparum; details: Plasmodium falciparum, NF54, 72 h, read-out: Late Stage (LG, Luc 72 h) IC50, >90% stage IV and V gametocytes, ±SEM
Method: as §2, §3

P. falciparum K1 [17] = assay: Proliferative (SYBR Green I) assay, asexual parasites, 96 h; format: cell-based; details: Plasmodium falciparum, ±SEM
Method: as §2, §4

P. falciparum W2 [18] = assay: as above; format: cell-based; details: Plasmodium falciparum, ±SEM
Method: as §2, §4

P. falciparum NF54 [19] = assay: as above; format: cell-based; details: Plasmodium falciparum, ±SEM
Method: as §2, §4

[20] = HepG2 cytotoxicity bioluminescence assay (CellTiterGlo, ATP); format: cell-based, human; details: human, uninfected HepG2-CD81 cells; for IC50 at 72 h: two biological replicates listed in one cell; for EC50 at 72 h: uninfected HepG2, ATP bioluminescence
Method: as §5, §6

HepG2 cells = assay: as above; format: cell-based, human; details: two biological replicates listed in one cell
Method: as §5, §6

[21] = Plasmodium berghei, two biological replicates listed in one cell
[22] = Plasmodium berghei, two biological replicates listed in one cell, read-out: P.berghei-Luciferase Liver Stage Bioluminescence Assay: IC50

| SMILES | EC50 [10] | IC50 (P. falciparum NF54 [12]) | IC50 (P. falciparum Dd2 [13]) | Emax [14, 21] | IC50 [14, 22] | EC50 (Cytotoxicity, MTT assay) | IC50 [15] | IC50 [16] | IC50 (P. falciparum K1 [17]) | IC50 (P. falciparum W2 [18]) | IC50 (P. falciparum NF54 [19]) | IC50 at 72 h [20] | EC50 at 72 h [20] | other results |
| --- | --- | --- | --- | --- | --- | --- | --- | --- | --- | --- | --- | --- | --- | --- |
| CC1CCC2C(C)C(Nc3ccc(F)cc3)OC3OC4(C)CCC1C32OO4 (stereo not drawn) [Arylamine 12] | – | – | – | – | – | – | – | – | – | – | – | – | – | IC50 (P. falciparum NF54 [1]): 1.3 ± 0.6 nM; IC50 (P. falciparum Dd2 [2]): 11.1 ± 1 nM; IC50 [3]: 38.2 ± 9 nM; IC50 (P. falciparum W2 [4]): 3 ± 1 nM; IC50 (P. falciparum W2 [5]; W2, read-out: W2 IC50): 4.76 ± 0.38 nM; IC90 (P. falciparum W2 [5]; W2, read-out: W2 IC90): 8.51 ± 0.34 nM; IC50 [6]: 16.4 ± 6.38 nM; EC50 [7]: 2900 ± 1400 nM; IC50 (P. falciparum K1 [8]): 0.64 ± 0.1 nM; IC50 (P. falciparum NF54 [9]): 7.8 ± 1.9 nM |
| C[C@H]1[C@H](N2CCN(C(=O)Nc3ccc(C(F)(F)F)cc3)CC2)O[C@@H]2O[C@@]3(C)CC[C@H]4[C@H](C)CC[C@@H]1[C@@]24OO3 [Compound 23] | 453 nM | 1.83 ± 0.2 nM | 12.2 ± 1.9 nM | 99.5% | 79.6 nM | 185000 nM | 1 to 2 nM | 1 ± 0.3 nM | 1.12 ± 0.13 nM | 1.41 ± 0.09 nM | 1.55 ± 0.08 nM | 6990 nM | 5450 nM | IC50 ([11]; >90% stage I–III gametocytes, ±SEM): 20 ± 9.4 nM; IC50 ([14]; Plasmodium berghei, HepG2, 48 h, liver stage, HepG2 host cells, luciferase after 48 h, ±SD, read-out: P. berghei sporozoites IC50): 82.5 ± 4.17 nM; inhibition at 10 µM ([14]; Plasmodium berghei, Conc. 10 μM): 105 ± 7.42%; IC50 ([14]; two biological replicates listed in one cell, listed as 23 (WHN-11), read-out: P.berghei-Luciferase Liver Stage Bioluminescence Assay: IC50): 85.5 nM; HepG2 Cytotoxicity Bioluminescence Assay: Maximum measured (%) (HepG2 cells; listed as 23 (WHN-11)): 50.9% and 55.9%; IC50 (HepG2 cells; listed as 23 (WHN-11)): 3910 nM |
| C[C@H]1[C@H](N2CCN(C(=O)Nc3ccc(F)cc3)CC2)O[C@@H]2O[C@@]3(C)CC[C@H]4[C@H](C)CC[C@@H]1[C@@]24OO3 [Compound 24] | 340 nM | 1.21 ± 0.04 nM | 9.2 ± 1.9 nM | 99.2% | 101 nM | 204000 nM | 1 to 2 nM | 17 ± 7 nM | 0.85 ± 0.1 nM | 1.16 ± 0.17 nM | 1.3 ± 0.1 nM | 6440 nM | 5160 nM | IC50 [11]: 36 ± 10.2 nM; IC50 ([14]; Plasmodium berghei, HepG2, 48 h, read-out: P. berghei sporozoites IC50, liver stage, HepG2 host cells, luciferase after 48 h, ±SD): 106 ± 6.36 nM; inhibition at 10 µM ([14]; Plasmodium berghei): 94.8 ± 2.76%; IC50 ([14]; two biological replicates listed in one cell, listed as 24 (WHN-12), read-out: P.berghei-Luciferase Liver Stage Bioluminescence Assay: IC50): 110 nM; HepG2 Cytotoxicity Bioluminescence Assay: Maximum measured (%) (HepG2 cells; listed as 24 (WHN-12)): 59.5% and 66.1%; IC50 (HepG2 cells; listed as 24 (WHN-12)): 3880 nM |
